Substitutions are numbered along the chain they refer to. Numbers in names are those of the source. Values belong to the molecule of their own block, whether it stands above or below them.
What was measured:
[1] = molecular target: T1, Ggc1p (yeast mitochondrial GDP/GTP carrier) (Saccharomyces cerevisiae, UniProt P38988); experiment: [[…]-3H]GTP uptake into effector-loaded proteoliposomes; format: biochemical; conditions: activator of GTP uniport; 5 mM internal compound; 1 μM external [8-3H]GTP; pH 7.0, 25 °C
T1 construct: gene GGC1; E. coli BL21(DE3) inclusion bodies, sarkosyl-solubilized, reconstituted in liposomes; calculated 33,215 Da with initiator Met
T1 sequence (P38988 1-300): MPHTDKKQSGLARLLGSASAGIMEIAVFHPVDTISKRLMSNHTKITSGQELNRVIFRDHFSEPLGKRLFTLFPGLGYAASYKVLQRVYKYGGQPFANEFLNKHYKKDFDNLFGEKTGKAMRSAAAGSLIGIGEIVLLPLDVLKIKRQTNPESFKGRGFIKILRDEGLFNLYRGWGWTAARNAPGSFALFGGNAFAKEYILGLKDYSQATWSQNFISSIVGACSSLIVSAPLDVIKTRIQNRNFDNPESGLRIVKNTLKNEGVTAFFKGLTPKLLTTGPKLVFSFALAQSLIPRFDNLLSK

[2] = molecular target: T1, Ggc1p (yeast mitochondrial GDP/GTP carrier); experiment: inhibition of [[…]-3H]GTP uptake into proteoliposomes; format: biochemical; conditions: GTP/GTP exchange (5 mM internal GTP) and citrate-induced uptake (5 mM internal citrate); 1 μM [8-3H]GTP; pH 7.0, 25 °C
[3] = molecular target: T1, Ggc1p (yeast mitochondrial GDP/GTP carrier); experiment: as above; format: biochemical; conditions: citrate-induced GTP uptake (5 mM internal citrate); 1 μM [8-3H]GTP; pH 7.0, 25 °C
[4] = molecular target: T1, Ggc1p (yeast mitochondrial GDP/GTP carrier); experiment: radiolabelled GTP uptake into proteoliposomes, activation by internal citrate; format: biochemical; conditions: activator (trans-activation of GTP uniport), not transported; allosteric, site distinct from GTP site; 10 μM external [8-3H]GTP; pH 7.0, 25 °C
[5] = molecular target: T2, Ggc1p (yeast mitochondrial GDP/GTP carrier) (Saccharomyces cerevisiae, UniProt P38988, K154A); experiment: radiolabelled GTP uptake into citrate-loaded proteoliposomes, […] s; format: biochemical; conditions: activator; 5 mM internal citrate; 1 μM external [8-3H]GTP; pH 7.0, 25 °C
T2 construct: gene GGC1; E. coli BL21(DE3) inclusion bodies, sarkosyl-solubilized, reconstituted in liposomes; calculated 33,215 Da with initiator Met
T2 sequence (P38988 1-300 K154A): T1 sequence (P38988 1-300) with K154A

[6] = molecular target: T3, Ggc1p (yeast mitochondrial GDP/GTP carrier) (Saccharomyces cerevisiae, UniProt P38988, R156A); experiment: as above; format: biochemical; conditions: activator; 5 mM internal citrate; 1 μM external [8-3H]GTP; pH 7.0, 25 °C
T3 construct: gene GGC1; E. coli BL21(DE3) inclusion bodies, sarkosyl-solubilized, reconstituted in liposomes; calculated 33,215 Da with initiator Met
T3 sequence (P38988 1-300 R156A): T1 sequence (P38988 1-300) with R156A

purified protein = substrate: Nc1nc2c(ncn2[C@@H]2O[C@H](COP(=O)(O)OP(=O)(O)OP(=O)(O)O)[C@@H](O)[C@H]2O)c(=O)[nH]1; experiment: purified protein; format: biochemical, Saccharomyces cerevisiae; conditions: citrate-induced GTP uniport, internal citrate 0.15-0.6 mM, external 0.25-1 μM [8-3H]GTP, pH 7.0, 25 °C, labelled compound

Molecule: O=C(O)C[C@H](C(=O)O)[C@@H](O)C(=O)O [isocitrate]
[8-3H]GTP uptake into effector-loaded proteoliposomes [1]: GTP uptake was also observed with proteoliposomes containing citrate, isocitrate, cis-aconitate

Molecule: O=C(O)/C=C(/CC(=O)O)C(=O)O [cis-aconitate]
[8-3H]GTP uptake into effector-loaded proteoliposomes [1]: GTP uptake was also observed with proteoliposomes containing citrate, isocitrate, cis-aconitate

Molecule: Cc1cc(C2(c3cc(C)c(O)c(Br)c3)OS(=O)(=O)c3ccccc32)cc(Br)c1O [bromocresol purple]
% inhibition at 0.3 mM [2]: tannic acid and bromocresol purple (inhibitors of the mitochondrial glutamate carriers)

Molecule: CO[C@H](C/C=C\C=C\CC/C=C/C[C@H](C)/C=C/C(=C\C(=O)O)CC(=O)O)/C(C)=C\C=C(/C)C(=O)O [bongkrekic acid]
% inhibition at 0.1 mM [3]: CIGU was partially inhibited by p-hydroxymercuribenzoate, carboxyatractyloside and bongkrekate

EC50 [4]: 510 µM
Molecule: O=C(O)CC(O)(CC(=O)O)C(=O)O [citrate]
% of wild-type uptake [5]: CIGU in K154A and R156A mutants were markedly decreased with respect to that of wild-type
% of wild-type uptake [6]: CIGU in K154A and R156A mutants were markedly decreased with respect to that of wild-type

B1: Ggc1p (yeast mitochondrial GDP/GTP carrier) (Saccharomyces cerevisiae S288C) (protein)
chain: T1 sequence (P38988 1-300)
notes: E. coli BL21(DE3) inclusion bodies, sarkosyl-solubilized, reconstituted in liposomes; calculated 33,215 Da with initiator Met
Km (purified protein): 0.72 µM

Reference: publication PMC9410265, “Citrate Regulates the Saccharomyces cerevisiae Mitochondrial GDP/GTP Carrier (Ggc1p) by Triggering Unidirectional Transport of GTP” (Journal of Fungi, 2022)
